For 14 molecules, TGI and GI50 results are on record in PubChem BioAssay (NCI).

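How tested: cells in 96-well plates exposed to compound for 48 hours at five concentrations. GI50 marks 50% less growth. At the TGI there is no net growth.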 Where only a bound is given, the exact number is not on record here.

Common to all, as to test: NCI tumour cell line growth inhibition, 48 h
The subject of assay [1] is UACC-257 melanoma.
The subject of assay [2] is UACC-62 melanoma.
The subject of assay [3] is ACHN renal.
Assay [4] relates to SK-MEL-2 melanoma.
For assay [5], the system named is HCT-15 colon.
Assay [6] has as its system NCI-H460 lung.
The subject of assay [7] is OVCAR-8 ovarian.
The test system of assay [8] is K-562 leukemia.
Assay [9] deals with MCF7 breast.
In assay [10] the test system is MDA-MB-435.

With `CCNC(=O)/C=C/CCC#Cc1ccc(-c2ccc(-c3cccs3)s2)s1`, the TGI in assay [1], in [2], in assay [3], in assay [4], in assay [5] and in assay [6] was > 100 µM each time. For the same molecule, in [7], the TGI was > 100 µM.
Turning to `COc1cccc2c1C1(O)C2CCCC12OCCCO2` (stereo not drawn), the TGI in [1], in assay [2], in assay [3], in [8], in [4] and in assay [5] was > 100 µM each time. For the same molecule, the TGI in assay [6] and in assay [7] was > 100 µM each time.
As for `CC1CCc2c(sc3ncnc(N/N=C/c4ccc(Cl)c(Cl)c4)c23)C1` (stereo not drawn), the TGI in [1] was > 100 µM; in assay [2] it was 64.5 µM; in assay [3], 58 µM; in [8] it was > 100 µM; in assay [4], > 100 µM; in [5] it was > 100 µM. Further, the TGI in assay [6] was 42.2 µM; in [7], 58 µM.
For the molecule `CC(=O)NC1=C(C)C(=O)c2c(nc3n2CCC3O)C1=O` (stereo not drawn), the TGI in [1] is > 59.9 µM; in assay [2] it was 38.2 µM; in assay [3] it was > 100 µM; in assay [8], 44.3 µM; in assay [4], 42.8 µM; in assay [5] it was > 100 µM. Further, the TGI in assay [6] is > 100 µM; in [7], 68.1 µM.
With `O=C1CSC2=NCC3(NN12)c1ccccc1-c1ccccc13`, the TGI in assay [1], in [2], in [9], in assay [3], in assay [10] and in [8] was > 10 µM each time. In addition, the TGI in [5], in [6] and in assay [7] was > 10 µM throughout.
In the case of `CN(C)CCOC(=O)c1ccc(N)cc1`, the TGI in [1] was 54 µM; in assay [2], > 100 µM; in assay [9] it was > 100 µM; in [3], > 100 µM; in assay [10], > 100 µM; in assay [8] it was > 100 µM. Further, the TGI in assay [5], in assay [6] and in [7] was > 100 µM each time.
As for `CSc1nc(NC2OCC(O)C(O)C2O)c(N)c(=O)n1C` (stereo not drawn), the TGI in [1], in [2], in assay [9], in [8], in [4] and in [5] was > 100 µM each time. Also, the TGI in assay [6] and in assay [7] was > 100 µM throughout.
Take `Cc1ccc(NC(=S)Nc2c(C)n(C)n(-c3ccccc3)c2=O)cc1`: the TGI in [1], in [2], in [9], in [3], in assay [10] and in assay [8] was > 100 µM throughout. Moreover, the TGI in assay [5], in assay [6] and in assay [7] was > 100 µM throughout.
On to `Cc1cn(CC2=NCCCN2)c(=O)[nH]c1=O`, for which the TGI in [1], in assay [2], in assay [9], in assay [3], in [8] and in assay [4] was > 100 µM throughout. In addition, the TGI in assay [5], in [6] and in assay [7] was > 100 µM throughout.
In the case of `Fc1ccc(C2CC(c3cccc(Nc4ccncc4)c3)=NN2c2cc(Cl)cc(Cl)c2)cc1` (stereo not drawn), the GI50 is 1.74 µM in [2]; 1.95 µM in assay [9]; 1.66 µM in assay [3]; 1.68 µM in assay [10]; 1.77 µM in assay [5]; 1.87 µM in assay [6]. For the same molecule, the GI50 in assay [7] is 2.2 µM. Moreover, the TGI in assay [2] was 3.27 µM; in assay [9], 4.37 µM; in [3] it was 3.02 µM; in [10], 3.13 µM; in assay [5], 3.47 µM; in assay [6] it was 3.55 µM. Moreover, the TGI in assay [7] came to 4.77 µM.
As to `CC(=O)OCc1cc(=O)n(C)c2c3c4c(cc12)c(C)cc(=O)n4CO3`, the TGI in assay [1] was determined as 5.42 µM; in [2], 3.58 µM; in assay [9], 17 µM; in assay [8], 27.7 µM; in [4], 3.65 µM; in [5], 37.8 µM. The results for the TGI in [6] and in assay [7] were 5.74 µM and 12.7 µM, respectively.
Take `OCC(O)C1OC2CC1Nc1ccccc1N2` (stereo not drawn): the TGI in assay [1], in [2], in [3], in [10], in assay [8] and in assay [4] was > 100 µM in each case. In addition, the TGI in assay [5], in [6] and in [7] was > 100 µM in each case.
On to `O=C1OC2(C(F)(F)F)Oc3ccccc3CN2C12CCCCC2` (stereo not drawn), for which the TGI in assay [1] is 71.4 µM; in assay [2] it was > 100 µM; in [9], > 100 µM; in assay [3], 38.1 µM; in assay [10] it was > 100 µM; in assay [8], 52.6 µM. The TGI in assay [5] is 84.1 µM; in assay [6], 66.4 µM; in assay [7] it was > 100 µM.
With `O=C(NC1(C(=O)NNc2nnc(-c3ccccc3)c(-c3ccccc3)n2)C(c2ccccc2)C(c2ccccc2)=NN1c1ccccc1)c1ccccc1` (stereo not drawn), the TGI in assay [1], in assay [2], in assay [3], in assay [10], in assay [4] and in [5] was > 100 µM each time. For the same molecule, the TGI in assay [6] and in assay [7] was > 100 µM each time.
